Earlier results as cited in US11903921B2 (priority 2020, dated 2024).

How the values were obtained:
[1] = system: influenza and respiratory tract infections; settings: prophylaxis and treatment
SEB-exposed mice = settings: mouse, in vivo
[2] = animal and human studies; orally in water, inhaled, intravenous
hyaluronan = settings: inhibitor of hyaluronan; compared with 4-MU
ovalbumin-induced asthma = settings: through inhibition of NF-κB activity
[3] = system: LPS-induced acute pulmonary inflammation; settings: 100 μmol/kg bodyweight, mouse

**Q.** Which “efficacy and safety in influenza and respiratory tract infections” value [1] does the source give for CCCCCCCCCCCCCCCC(=O)NCCO [PEA, palmitoylethanolamide] here?
**A.** Its value is “effective and safe”.

**Q.** With Cc1cc(=O)oc2cc(O)ccc12 [4-MU, 7-Hydroxy-4-methyl-2H-chromen-2-one] as the compound, how does the SEB-induced lung permeability (SEB-exposed mice) read?
**A.** Its SEB-induced lung permeability is “reduction in SEB-induced lung permeability”.

**Q.** And the cytokine production (SEB-exposed mice)?
**A.** The cytokine production was “reduced cytokine production”.

**Q.** And the “expression of HAS-1, HAS-2, and HAS-3” value (SEB-exposed mice)?
**A.** Its value is “reduces expression of HAS-1, HAS-2, and HAS-3”.

**Q.** What about the “levels of HA in the lungs” value (SEB-exposed mice) of the same compound?
**A.** Its value is “reduced levels of HA”.

**Q.** Which harmlessness [2] does the source give for [HH] [Molecular hydrogen] here?
**A.** Its harmlessness is “essentially harmless”.

**Q.** With O=c1c(O)c(-c2ccc(O)c(O)c2)oc2cc(O)ccc12 [Fisetin] as the compound, how does the “effective dose relative to 4-MU” value (hyaluronan) read?
**A.** The value was 10 times lower.

**Q.** And the “efficacy in ovalbumin-induced asthma” value (ovalbumin-induced asthma)?
**A.** The value was “effective”.

**Q.** And the “anti-inflammatory effects compared with dexamethasone” value [3]?
**A.** Its value is “more pronounced than dexamethasone”.

**Q.** What about the measures of inflammation [3] of the same compound?
**A.** Its measures of inflammation is “significantly reduced numerous measures of inflammation”.

**Q.** And the “expression of T(H)2-type cytokines (IL-4, IL-13, and IL-5)” value (basophils)?
**A.** Its value is “powerfully suppress”.
